Reference: PMC9179336, “Therapeutic Validation of GEF-H1 Using a De Novo Designed Inhibitor in Models of Retinal Disease” (Cells, 2022)
Where no end group is shown, it is not given here.

Columns and labels:
[1] = system: RPE cells (TGFβ-stimulated); test: RPE cell scratch wound migration assay; format: cell-based, porcine; conditions: 16 h
MDCK cells [2] = test: LDH release (CytoTox-ONE), MDCK cells; format: cell-based; conditions: overnight, increasing concentrations
Method: (§1) HEK293 and MDCK cells were seeded in triplicate wells and incubated overnight with the indicated concentration of TAT-P5 or TAT-F1. The next day 30 μL of medium was removed from each well and incubated with 30μL of CytoTox-ONE (Promega) reagent for 40 min. Fluorescence was then measured to assess LDH release. To assess Caspase 3/7 activity cells were assayed using Apo-ONE Homogenous Caspase-3/7 assay (Promega) according to manufactures instructions.
(§2) We next tested whether the inhibitors are toxic to cultured cells. MDCK and HEK293 cells were incubated with increasing concentrations of either TAT-F1 or TAT-P5 overnight before analysis of LDH release as a measure of necrosis or Caspase 3/7 activity to assess induction of apoptosis (Figure S2).
(§3) MDCK (A) and HEK 293 (B) cells were incubated overnight with TAT-F1 or TAT-P5 at the concentrations indicated. Cell toxicity was then assessed by measuring caspase 3/7 activity in cell extracts and release of LDH into the medium. No significant cell toxicity was observed.
(§4) (1 picture or pasted object on this page, not shown here)

MDCK cells [3] = test: Caspase 3/7 activity (Apo-ONE), MDCK cells; format: cell-based; conditions: overnight, increasing concentrations
Method: as §1, §2, §3, §4

HEK293 cells [4] = test: LDH release (CytoTox-ONE), HEK293 cells; format: cell-based; conditions: overnight, increasing concentrations
Method: as §1, §2, §3, §4

HEK293 cells [5] = test: Caspase 3/7 activity (Apo-ONE), HEK293 cells; format: cell-based; conditions: overnight, increasing concentrations
Method: as §1, §2, §3, §4

| Sequence | RPE cell migration (scratch closure), in words [1] | cytotoxicity, LDH release (necrosis), MDCK (MDCK cells [2]) | cytotoxicity, Caspase 3/7 activity (apoptosis), MDCK (MDCK cells [3]) | cytotoxicity, LDH release (necrosis), HEK293 (HEK293 cells [4]) | cytotoxicity, Caspase 3/7 activity (apoptosis), HEK293 (HEK293 cells [5]) |
| --- | --- | --- | --- | --- | --- |
| GRKKRRQRRRPWQDYIAEVPRSDYDLRPTGQD [TAT-scr, scrambled version of TAT-P5, negative control peptide] | had no effect |  |  |  |  |
| GRKKRRQRRRPWQGQEDYDRLRPASYPDTDVI [TAT-P5] |  | Neither assay revealed an increase in cytotoxicity | Neither assay revealed an increase in cytotoxicity | Neither assay revealed an increase in cytotoxicity | Neither assay revealed an increase in cytotoxicity |
